One experiment deals with CHLA-90 xenografts. As to the kind of experiment: CHLA-90 xenografts in immunocompromised mice. Format: in vivo. The conditions noted are these: 300 mg/kg of body weight, 25 days. The text has this: (§1) GAPDH used as a loading control. […] Percent confluence normalized to DMSO for each condition and plotted at day 12. Values normalized mean n±SD (n=3). Statistical significance assessed using student's unpaired t-test with each cell line compared to DMSO (* indicates p<0.05). […] Percent AV positive cells plotted, values are mean n±SD (n=3). Statistical significance assessed using student's unpaired t-test with each cell line compared to DMSO (* indicates p<0.05). (d) Tumor volume measurements of CHLA-90 cells subcutaneously injected into immunocompromised mice. Mice were treated with vehicle or UNC1999 at 300 mg/kg of body weight for 25 days, values mean n±SEM (n=9). Statistical significance assessed using student's unpaired t-test compared to vehicle (* indicates p<0.001). (e) Tumor weight measurement from xenografts collected in (d), values mean n±SEM (n=9). Images of excised tumors underneath (* indicates p<0.001). (f) Immunoblots for H3K27me3 from acid extracted histones derived from vehicle and treated xenografts. H4 and histones used as loading controls.

A further experiment relates to ATRX IFF NB cells. As to the kind of experiment: Proliferation (Incucyte, percent confluence normalized to DMSO) of ATRX IFF NB cells. Conditions: proliferation IC50 curves, day 12 (FIG. 11a). It counts as cell-based, human.
From the text: as §1, with “(e) Tumor weight measurement from xenografts collected in (d), values mean n±SEM (n=9). Images of excised tumors underneath (* indicates p<0.001). (f) Immunoblots for H3K27me3 from acid extracted histones derived from vehicle and treated xenografts. H4 and histones used as loading controls.” left out
Proliferation evaluated using the […] […] IC50 for each cell line calculated in Prism. […] Statistical significance assessed using student's unpaired t-test with each cell line compared to DMSO (* indicates p<0.05). […] Proliferation assessed in the same manner as (a). Statistical significance assessed using student's unpaired t-test with each cell line compared to DMSO (* indicates p<0.05). […] AV staining assessed in the same manner as (b). […] Proliferation assessed in the same manner as (a). […] AV staining assessed in the same manner as (b).
GAPDH used as a loading control. […] Proliferation evaluated using the Incucyte™ Life-Cell Imaging System. […]

For `CCCc1cc(C)[nH]c(=O)c1CNC(=O)c1cc(-c2ccc(N3CCN(C(C)C)CC3)nc2)cc2c1cnn2C(C)C` [UNC1999], in the experiment on CHLA-90 xenografts, the “tumor growth and volume compared to vehicle-treated tumors” value is “significant reduction”.

With `CCN(c1cc(-c2ccc(CN3CCOCC3)cc2)cc(C(=O)NCc2c(C)cc(C)[nH]c2=O)c1C)C1CCOCC1` [EPZ-6438, Tazemetostat], in the experiment with ATRX IFF NB cells, the “sensitivity of ATRX IFF NB cells compared to other NB subtypes” value is given as 5-10 fold.

The record behind these values is patent US20220298510A1, “COMPOUNDS AND METHODS FOR INHIBITING CANCERS VIA REST INHIBITION” (Icahn School of Medicine at Mount Sinai, priority 2019, published 2022).
